Read-outs that look alike come from different tables or passages of the source.

Consider 18 molecules from patent US11440913B2, “Aminoimidazopyridazines as kinase inhibitors” (BRISTOL-MYERS SQUIBB COMPANY, priority 2017, dated 2022).

Experiment [1] concerns MLKL phosphorylation in HT29-L23 human colorectal adenocarcinoma cells. Kind of experiment: MLKL Phosphorylation High-Content Assay. In kind it is cell-based. The note with it: 6 h, necroptosis induced with TNFα, SMAC mimetic and Z-VAD, read-out: pMLKL (IC50). How it is done:
MLKL Phosphorylation High-Content Assay
HT29-L23 human colorectal adenocarcinoma cells were maintained in RPMI 1640 medium containing 10% heat-inactivated FBS, 1% Pennicilin-Streptomycin and 10 mM HEPES. Cells were seeded at 2,000 cells/well in 384 w tissue culture-treated microplates (Greiner #781090-3B) and incubated at 37° C. (5% CO2/95% O2) for two days. On the day of assay, the cells were treated with test compounds at final concentrations of 6.25 to 0.106 μM for 30 min at 37° C. (5% CO2/95% O2). Necroptopsis was induced using a mixture of human TNFα (35 ng/mL) (Peprotech #300-01A), SMAC mimetic (from US 2015/0322111 A1) (700 nM) and Z-VAD (140 nM) (BD pharmingen #51-6936). Following six hours incubation at 37° C. (5% CO2/95% O2), the cells were fixed with 4% formaldedye (ACROS 11969-0010) for 15 min at room temperature and then permeabilized with phoshpate buffered saline (PBS) containing 0.2% Triton-X-100 for 10 min. MLKL phosporylation was detected using anti-MLKL (phospho S358) antibody (Abcam # ab187091) (1:1000 dilution in Blocking Buffer [PBS supplemented with 0.1% BSA]) with overnight incubation at 4° C. After washing three times in PBS, goat anti-rabbit Alexa-488 (1:1000 dilution) (Life Technologies, A11008) and Hoechst 33342 (Life Technologies, H3570) (1:2000 dilution) in Blocking Buffer were added for 1 h at room temperature. Following another three cycles of washes in PBS, the microplates were sealed, and cellular images were acquired in the Cellomics ArrayScan VTI high-content imager equipped with an X1 camera. Fluorescent images were taken using a 10× objective and the 386-23 BGRFRN_BGRFRN and 485-20 BGRFRN_BGRFRN filter sets, for nuclei and MLKL phosphorylation, respectively. The image sets were analyzed using the Compartmental Analysis Bioapplication software (Cellomics). The level of MLKL phosphorylation was quantified as MEAN_CircRingAvgIntenRatio. […] The IC50 value was defined as the concentration of compound that produces 50% of the maximal inhibition. The data were fitted using the 4-parameter logistic equation to calculate the IC50 and Ymax values.

Experiment [2] concerns the target His-GST-TVMV-hRIPK1(1-324) (Homo sapiens (Human), UniProt Q13546). Put plainly: RIPK1 HTRF Binding Assay. The note with it: HTRF binding, 1 h at rt; read-out: RIPK1 (IC50). Here is the method: A solution was prepared containing 0.2 nM Anti GST-Tb (Cisbio, 61GSTTLB), 90.6 nM probe and 1 nM His-GST-TVMV-hRIPK1(1-324) in FRET Buffer (20 mM HEPES, 10 mM MgCl2, 0.015% Brij-35, 4 mM DTT, 0.05 mg/mL BSA). Using Formulatrix Tempest, the detection antibody/enzyme/probe solution ([…]) was dispensed into wells of a 1536 plate (Black Low Binding Polystyrene 1536 Plate (Corning, 3724)) containing 10 nL of compounds of interest at appropriate concentration in DMSO. The plate was incubated at rt for 1 h. FRET was measured using the EnVision plate reader (Excitation: 340 nm, Emission: 520 nm/[…]). Total signal (0% inhibition) was calculated from wells containing 10 nL DMSO only.
The coding region of human RIPK1(1-324) flanked by NdeI site at 5′ end and stop codon TGA and XhoI site at 3′ end was codon optimized and gene synthesized at GenScript USA Inc. (Piscataway, N.J.) and subcloned into a modified pFastBacl vector (Invitrogen, Carlsbad, Calif.) with N-terminal His-GST-TVMV tag, to generate His-GST-TVMV-hRIPK1(1-324)-pFB. The fidelity of the synthetic fragment was confirmed by sequencing.
In general terms: TR-FRET usually uses a lanthanide donor and a delayed reading to cut background.

His-GST-TVMV-hRIPK1(1-324), sequence (Q13546 1-324): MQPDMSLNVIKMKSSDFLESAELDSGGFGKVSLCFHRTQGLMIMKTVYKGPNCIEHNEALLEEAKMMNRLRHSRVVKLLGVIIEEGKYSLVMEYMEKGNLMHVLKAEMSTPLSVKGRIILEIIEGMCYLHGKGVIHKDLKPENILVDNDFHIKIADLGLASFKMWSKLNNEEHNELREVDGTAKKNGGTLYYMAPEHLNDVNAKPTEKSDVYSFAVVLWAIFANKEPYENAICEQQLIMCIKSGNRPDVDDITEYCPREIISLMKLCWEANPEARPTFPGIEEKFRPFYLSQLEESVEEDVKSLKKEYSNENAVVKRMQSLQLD

By IC50 is commonly meant the concentration at which inhibition is half-maximal. For the molecule `COc1ncc(-c2ccc3nc(NC(C)=O)cn3n2)cc1C(=O)NCc1cc(F)cc(F)c1OCC1CCC1` [Example 97, N-{[2-(cyclobutylmethoxy)-3,5-difluorophenyl]methyl}-5-{2-acetamidoimidazo[1,2-b]pyridazin-6-yl}-2-methoxypyridine-3-carboxamide], the IC50 in experiment [1] (Homo sapiens) and in experiment [2] was 2 nM throughout.

Take `CC(=O)Nc1cn2nc(-c3cc(F)c(C)c(C(=O)N[C@@H](C)c4cc(OC(F)(F)F)ccc4F)c3)ccc2n1` [Example 360, 5-{2-acetamidoimidazo [1,2-b]pyridazin-6-yl}-3-fluoro-N-[(1S)-1-[2-fluoro-5-(trifluoromethoxy)phenyl]ethyl]-2-methylbenzamide]: the IC50 amounted to 9 nM in experiment [1] (Homo sapiens) and 6 nM in experiment [2].

With `[2H]C([2H])([2H])[C@@H](NC(=O)c1cc(-c2ccc3nc(NC(C)=O)cn3n2)cnc1C)c1cc(C(F)(F)F)ccc1F` [Example 197, 5-{2-acetamidoimidazo[1,2-b]pyridazin-6-yl}-N-[(1R)-1-[2-fluoro-5-(trifluoromethyl)phenyl](2,2,2-deutero)ethyl]-2-methylpyridine-3-carboxamide], the IC50 in experiment [1] (Homo sapiens) is 23 nM; in experiment [2] it was 72 nM.

Take `COc1ccc(-c2ccc3nc(NC(C)=O)cn3n2)c(F)c1C(=O)N[C@@H](C)c1cc(OC(F)(F)F)ccc1F` [Example 375, 3-{2-acetamidoimidazo [1,2-b]pyridazin-6-yl}-2-fluoro-N-[(1S)-1[2-fluoro-5-(trifluoromethoxy)phenyl]ethyl]-6-methoxybenzamide]: the IC50 was determined as 3 nM in experiment [1] (Homo sapiens) and 12 nM in experiment [2].

As to `COc1nc(C)c(-c2ccc3nc(NC(C)=O)cn3n2)cc1C(=O)NC(C)c1cccc(OC(F)(F)F)c1` (stereo not drawn) [Example 292, 5-{2-acetamidoimidazo[1,2-b]pyridazin-6-yl}-2-methoxy-6-methyl-N-{1-[3-(trifluoromethoxy)phenyl]ethyl}pyridine-3-carboxamide], the figures for the IC50 in experiment [1] and in experiment [2] were 37 nM and 24 nM, respectively.

Regarding `[2H]C([2H])([2H])Oc1nc(C)c(-c2ccc3nc(NC(C)=O)cn3n2)cc1C(=O)NCc1cc(OC(F)(F)F)ccc1F` [Example 179, 5-{2-acetamidoimidazo[1,2-b]pyridazin-6-yl}-N-{[2-fluoro-5-(trifluoromethoxy)phenyl]methyl}-2-(deutero)methoxy-6-methylpyridine-3-carboxamide], the IC50 in experiment [1] (Homo sapiens) stood at 13 nM; in experiment [2] it was 3 nM.

Consider `[2H]C([2H])([2H])Oc1nc(C)c(-c2ccc3nc(NC(C)=O)cn3n2)cc1C(=O)NCc1cc(F)cc(F)c1O[C@H]1CCOC1` [Example 171, N-({3,5-difluoro-2-[(3S)-oxolan-3-yloxy]phenyl}methyl)-5-{2-acetamidoimidazo[1,2-b]pyridazin-6-yl}-2-(deutero)methoxy-6-methylpyridine-3-carboxamide], for which the IC50 in experiment [1] (Homo sapiens) and in experiment [2] was 3 nM in each case.

As for `CC(=O)Nc1cn2nc(-c3cnc(Cl)c(C(=O)NCc4cc(OC(F)(F)F)ccc4F)c3)ccc2n1` [Example 12, 2-chloro-5-{2-acetamidoimidazo[1,2-b]pyridazin-6-yl}-N-{[2-fluoro-5-(trifluoromethoxy)phenyl]methyl}pyridine-3-carboxamide], the IC50 is 27 nM in experiment [1] (Homo sapiens) and 5 nM in experiment [2].

For `CC(=O)Nc1cn2nc(-c3ccc(Cl)c(C(=O)NCc4cc(F)ccc4C(=O)N4CCC(F)(F)C4)c3)ccc2n1` [Example 387, 2-chloro-N-{[2-(3,3-difluoropyrrolidine-1-carbonyl)-5-fluorophenyl]methyl}-5-{2-acetamidoimidazo [1,2-b]pyridazin-6-yl}benzamide], the IC50 in experiment [1] (Homo sapiens) came out at 5 nM; in experiment [2], 8 nM.

In the case of `COc1ncc(-c2ccc3nc(NC(C)=O)cn3n2)cc1C(=O)NCc1ccc(F)c(OCC2CC2)c1` [Example 142, N-{[3-(cyclopropylmethoxy)-4-fluorophenyl]methyl}-5-{2-acetamidoimidazo[1,2-b]pyridazin-6-yl}-2-methoxypyridine-3-carboxamide], the IC50 in experiment [1] (Homo sapiens) stood at 181 nM; in experiment [2], 29 nM.

Regarding `CC(=O)Nc1cn2nc(-c3cnc(C)c(C(=O)NC(C)c4cc(C(F)(F)F)ccc4F)c3)ccc2n1` (stereo not drawn) [Example 205, 5-{2-acetamidoimidazo[1,2-b]pyridazin-6-yl}-N-{1-[2-fluoro-5-(trifluoromethyl)phenyl]ethyl}-2-methylpyridine-3-carboxamide], the IC50 turned out to be 74 nM in experiment [1] and 27 nM in experiment [2].

Regarding `CC(=O)Nc1cn2nc(-c3ccc(Cl)c(C(=O)NCc4cc(-c5cnn(C)c5)ccc4F)c3F)ccc2n1` [Example 389, 6-chloro-3-{2-acetamidoimidazo [1,2-b]pyridazin-6-yl}-2-fluoro-N-{[2-fluoro-5-(1-methyl-1H-pyrazol-4-yl)phenyl]methyl} benzamide], the IC50 stood at 8 nM in experiment [1] (Homo sapiens) and 4 nM in experiment [2].

Turning to `COc1ncc(-c2ccc3nc(NC(C)=O)cn3n2)cc1C(=O)NCc1cccc(F)c1OC(C)C1CC1` (stereo not drawn) [Example 144, N-{[2-(1-cyclopropylethoxy)-3-fluorophenyl]methyl}-5-{2-acetamidoimidazo[1,2-b]pyridazin-6-yl}-2-methoxypyridine-3-carboxamide], the IC50 in experiment [1] and in experiment [2] was 6 nM each time.

For the molecule `[2H]C([2H])(NC(=O)c1cc(-c2ccc3nc(NC(C)=O)cn3n2)c(C)nc1C)c1cc(OC(F)(F)F)ccc1F` [Example 76, 5-{2-acetamidoimidazo[1,2-b]pyridazin-6-yl}-N-{[2-fluoro-5-(trifluorometh-oxy)phenyl](deutero)methyl}-2,6-dimethylpyridine-3-carboxamide], the IC50 in experiment [1] (Homo sapiens) amounted to 8 nM; in experiment [2], 3 nM.

Take `COc1ncc(-c2ccc3nc(NC(C)=O)cn3n2)cc1C(=O)N[C@H](C)c1cccc(OC(F)(F)F)c1` [Example 112, 5-{2-acetamidoimidazo[1,2-b]pyridazin-6-yl}-2-methoxy-N-[(1R)-1-[3-(trifluoromethoxy)phenyl](2,2,2-deutero)ethyl]pyridine-3-carboxamide]: the values for the IC50 in experiment [1] and in experiment [2] were 73 nM and 17 nM, respectively.

On to `[2H]C([2H])(NC(=O)c1cc(-c2ccc3nc(NC(C)=O)cn3n2)cnc1C)c1cc(C(F)(F)F)ccc1F` [Example 200, 5-{2-acetamidoimidazo[1,2-b]pyridazin-6-yl}-N-{[2-fluoro-5-(trifluoromethyl)phenyl] (deutero)methyl}-2-methylpyridine-3-carboxamide], for which the values for the IC50 in experiment [1] (Homo sapiens) and in experiment [2] were 34 nM and 17 nM, respectively.

With `CC(=O)Nc1cn2nc(-c3cc(C(=O)NCc4cc(C(F)(F)F)cc(Cl)c4F)c(C)cc3C)ccc2n1` [Example 384, N-{[3-chloro-2-fluoro-5-(trifluoromethyl)phenyl]methyl}-5-{2-acetamidoimidazo [1,2-b]pyridazin-6-yl}-2,4-dimethylbenzamide], the IC50 in experiment [1] (Homo sapiens) is 99 nM; in experiment [2], 48 nM.

For the molecule `COCC(=O)Nc1cn2nc(-c3cnc(OC)c(C(=O)NCc4cc(OCC5CC5)ccc4F)c3)ccc2n1` [Example 260, N-{[5-(cyclopropylmethoxy)-2-fluorophenyl]methyl}-2-methoxy-5-[2-(2-methoxyacetamido)imidazo[1,2-b]pyridazin-6-yl]pyridine-3-carboxamide], the IC50 in experiment [1] (Homo sapiens) was 80 nM; in experiment [2] it was 18 nM.
